Data reported in patent US20220370384A1, “COMBINATIONS OF MEK INHIBITORS WITH CAP-DEPENDENT ENDONUCLEASE INHIBITORS” (priority 2019, published 2022).

Assays:
Assay type in all cases: cell-based, influenza virus
[1] = system: wild type (wt) strain of A/Mississippi/3/2001 (H1N1)
[2] = system: rgA/Giessen/6/09 (H1N1-WT)
[3] = system: rgA/Victoria/3/75 (H3N2-WT)

Q: How did the antiviral effectiveness [1] turn out when `CCOC(=O)C1=C[C@@H](OC(CC)CC)[C@H](NC(C)=O)[C@@H](N)C1` [oseltamivir] was run?
A: The antiviral effectiveness was “very effective”.

Q: `O=C(O)c1ccc(F)c(F)c1Nc1ccc(I)cc1Cl` [ATR002, 2-(2-chloro-4-iodophenylamino)-N-3,4-difluoro benzoic acid] was tested. Which “activity lower (than BLXM)” value [2] did it give?
A: The value was 13%.

Q: What about the antiviral activity [3] of the same compound?
A: Its antiviral activity is “revealed its potency against both variants”.

Q: Which “reduction of the viral titer” value [2] does the source give for `COC(=O)OCOc1c2n(ccc1=O)N([C@@H]1c3ccccc3SCc3c1ccc(F)c3F)[C@@H]1COCCN1C2=O` [BLXM] here?
A: The value was “approximate complete reduction of the viral titer”.

Q: For `O=C(NOCC1CC1)c1ccc(F)c(F)c1Nc1ccc(I)cc1Cl` [CI-1040], which antiviral effectiveness [1] is on record?
A: The antiviral effectiveness was “very effective”.
